Laboratory results as given in ChEMBL document CHEMBL1134554, “Design, synthesis, and structure-activity relationships of macrocyclic hydroxamic acids that inhibit tumor necrosis factor alpha release in vitro and in vivo” (J Med Chem, 2001).

Molecular target: Disintegrin and metalloproteinase domain-containing protein 17 (Homo sapiens, UniProt P78536)
Sequence (P78536 whole entry, the tested form may be a part): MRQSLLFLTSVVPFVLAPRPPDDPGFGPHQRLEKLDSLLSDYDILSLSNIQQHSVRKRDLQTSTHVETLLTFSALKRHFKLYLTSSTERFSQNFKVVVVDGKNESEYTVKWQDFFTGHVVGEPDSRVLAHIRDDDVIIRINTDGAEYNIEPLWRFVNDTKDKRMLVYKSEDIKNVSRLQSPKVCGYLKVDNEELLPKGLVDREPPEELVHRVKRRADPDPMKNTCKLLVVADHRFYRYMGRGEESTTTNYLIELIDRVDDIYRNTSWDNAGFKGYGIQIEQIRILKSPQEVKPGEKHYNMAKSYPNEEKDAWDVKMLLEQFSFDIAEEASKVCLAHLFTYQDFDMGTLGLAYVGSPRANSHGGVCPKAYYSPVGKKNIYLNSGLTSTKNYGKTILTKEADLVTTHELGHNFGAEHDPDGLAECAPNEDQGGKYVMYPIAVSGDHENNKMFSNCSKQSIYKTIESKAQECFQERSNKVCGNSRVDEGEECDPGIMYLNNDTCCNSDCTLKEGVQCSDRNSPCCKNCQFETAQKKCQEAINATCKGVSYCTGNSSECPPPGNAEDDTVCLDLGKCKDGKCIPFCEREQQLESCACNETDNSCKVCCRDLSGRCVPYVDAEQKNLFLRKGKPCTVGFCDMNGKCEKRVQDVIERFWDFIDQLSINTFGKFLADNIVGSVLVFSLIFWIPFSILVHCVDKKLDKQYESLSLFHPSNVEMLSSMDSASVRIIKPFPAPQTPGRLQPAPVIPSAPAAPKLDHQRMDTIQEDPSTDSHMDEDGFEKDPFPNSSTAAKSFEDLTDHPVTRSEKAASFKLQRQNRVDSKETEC
Description: Inhibition of LPS-stimulated TNF-alpha release in human whole blood

| IC50 [nM] | SMILES |
| --- | --- |
| 200 | CC(C)C[C@H]1C(=O)N[C@H](C(=O)NCC(=O)Nc2ccccn2)CCCCN(C)C(=O)OCCC[C@@H]1C(=O)NO |
| 700 | CNC(=O)[C@@H](C)NC(=O)[C@@H]1Cc2ccc(cc2)OCCC[C@H](C(=O)NO)[C@@H](CC(C)C)C(=O)N1 |
| 930 | CC(C)C[C@H]1C(=O)N[C@H](C(=O)NCC(=O)Nc2cccc3c2Cc2ccccc2-3)Cc2ccc(cc2)OCCC[C@@H]1C(=O)NO |
| 1200 | CNC(=O)[C@@H]1Cc2ccc(cc2)OCCC[C@H](C(=O)NO)[C@@H](CC(C)C)C(=O)N1 |
| 270 | CC(C)C[C@H]1C(=O)N[C@H](C(=O)NCC(=O)N2CC(C)CC(C)C2)Cc2ccc(cc2)OCCC[C@@H]1C(=O)NO (stereo partly drawn) |
| 2200 | CCCCCC[C@H]1C(=O)N[C@H](C(=O)NCc2ccccc2)Cc2ccc(cc2)OCCC[C@@H]1C(=O)NO |
| 950 | CNC(=O)[C@@H](COC(C)(C)C)NC(=O)[C@@H]1Cc2ccc(cc2)OCCC[C@H](C(=O)NO)[C@@H](CC(C)C)C(=O)N1 |
| 1000 | CC(C)C[C@H]1C(=O)N[C@H](C(=O)NCCc2ccc(S(N)(=O)=O)cc2)Cc2ccc(cc2)OCCC[C@@H]1C(=O)NO |
| 6500 | CNC(=O)[C@@H]1CCCCNC(=O)CO[C@H](C(=O)NO)[C@@H](CC(C)C)C(=O)N1 |
| 150 | CC(C)C[C@H]1C(=O)N[C@H](C(=O)NCC(=O)N2CC(C)OC(C)C2)CCCCNC(=O)OCCC[C@@H]1C(=O)NO (stereo partly drawn) |
| 1510 | CNC(=O)[C@H](NC(=O)[C@@H]1Cc2ccc(cc2)OCCC[C@H](C(=O)NO)[C@@H](CC(C)C)C(=O)N1)C(C)C |
| 120 | CNC(=O)CNC(=O)[C@@H]1CCCCNC(=O)OCCC[C@H](C(=O)NO)[C@@H](CC(C)C)C(=O)N1 |
| 2000 | CC(C)C[C@H]1C(=O)N[C@H](C(=O)NCC(F)(F)F)CCCCNC(=O)OCCC[C@@H]1C(=O)NO |
| 100 | CC(C)C[C@H]1C(=O)N[C@H](C(=O)N[C@H](CO)C(=O)N2CCOCC2)CCCCNC(=O)OCCC[C@@H]1C(=O)NO |
| 160 | CC(C)C[C@H]1C(=O)N[C@H](C(=O)NCC(=O)N2CCN(C)CC2)CCCCNC(=O)OCCC[C@@H]1C(=O)NO |
| 130 | CC(C)C[C@H]1C(=O)N[C@H](C(=O)NCCc2c[nH]c3ccc(F)cc23)CCCCNC(=O)OCCC[C@@H]1C(=O)NO |
| 280 | CC(C)C[C@H]1C(=O)N[C@H](C(=O)NCC(=O)N2CCC(O)CC2)CCCCNC(=O)OCCC[C@@H]1C(=O)NO |
| 240 | CC(C)C[C@H]1C(=O)N[C@H](C(=O)NCC(=O)NCC(F)(F)F)Cc2ccc(cc2)OCCC[C@@H]1C(=O)NO |
| 580 | CC(C)C[C@H]1C(=O)N[C@H](C(=O)NCC(=O)N2CCCC(C(=O)O)C2)CCCCNC(=O)OCCC[C@@H]1C(=O)NO (stereo partly drawn) |
| 120 | CC(C)C[C@H]1C(=O)N[C@H](C(=O)Nc2nc(CC(=O)N3CCOCC3)cs2)CCCCNC(=O)OCCC[C@@H]1C(=O)NO |

| IC50 [nM] | SMILES |
| --- | --- |
| 130 | CCOC(=O)N1CCN(C(=O)CNC(=O)[C@@H]2CCCCNC(=O)OCCC[C@H](C(=O)NO)[C@@H](CC(C)C)C(=O)N2)CC1 |
| 700 | CC(C)C[C@H]1C(=O)N[C@H](C(=O)NCC(=O)Nc2ccc(F)cc2F)Cc2ccc(cc2)OCCC[C@@H]1C(=O)NO |
| 190 | CC(C)C[C@H]1C(=O)N[C@H](C(=O)Nc2ccc(N3CCOCC3)cc2)CCCCNC(=O)OCCC[C@@H]1C(=O)NO |
| 200 | CC(C)C[C@H]1C(=O)N[C@H](C(=O)NCC(=O)N2CCOCC2)CCCCN(C)C(=O)OCCC[C@@H]1C(=O)NO |
| 130 | CCOC(=O)N1CCC(NC(=O)[C@@H]2CCCCNC(=O)OCCC[C@H](C(=O)NO)[C@@H](CC(C)C)C(=O)N2)CC1 |
| 680 | CC(C)C[C@H]1C(=O)N[C@H](C(=O)NCC(F)(F)F)Cc2ccc(cc2)OCCC[C@@H]1C(=O)NO |
| 1170 | Cc1ccc2[nH]cc(CCNC(=O)[C@@H]3CCCCNC(=O)OCCC[C@H](C(=O)NO)[C@@H](CC(C)C)C(=O)N3)c2c1 |
| 85 | CC(C)C[C@H]1C(=O)N[C@H](C(=O)NCCc2ccccc2O)CCCCNC(=O)OCCC[C@@H]1C(=O)NO |
| 70 | CC(C)C[C@H]1C(=O)N[C@H](C(=O)NCC(=O)N2CCN(c3ccccn3)CC2)CCCCNC(=O)OCCC[C@@H]1C(=O)NO |
| 180 | CC(C)C[C@H]1C(=O)N[C@H](C(=O)NCC(=O)N2CCC(N3CCCCC3)CC2)CCCCNC(=O)OCCC[C@@H]1C(=O)NO |
| 70 | CC(C)C[C@H]1C(=O)N[C@H](C(=O)NCC(=O)N2CCN(c3ccccc3)CC2)CCCCNC(=O)OCCC[C@@H]1C(=O)NO |
| 690 | CNC(=O)[C@@H](CCCCN)NC(=O)[C@@H]1CCCCNC(=O)OCCC[C@H](C(=O)NO)[C@@H](CC(C)C)C(=O)N1 |
| 1300 | CNC(=O)[C@@H]1CCCCN(S(=O)(=O)c2ccccc2)CCC[C@H](C(=O)NO)[C@@H](CC(C)C)C(=O)N1 |
| 4490 | CNC(=O)[C@H](C)NC(=O)[C@@H]1Cc2ccc(cc2)OCCC[C@H](C(=O)NO)[C@@H](CC(C)C)C(=O)N1 |
| 200 | CC(C)C[C@H]1C(=O)N[C@H](C(=O)NCC(=O)N2CCC(O)CC2)Cc2ccc(cc2)OCCC[C@@H]1C(=O)NO |
| 150 | CC(C)C[C@H]1C(=O)N[C@H](C(=O)N[C@H](C)C(=O)N2CCOCC2)CCCCNC(=O)OCCC[C@@H]1C(=O)NO |
| 600 | CCOC(=O)N1CCN(C(=O)CNC(=O)[C@@H]2CCCCN(C)C(=O)OCCC[C@H](C(=O)NO)[C@@H](CC(C)C)C(=O)N2)CC1 |
| 300 | CC(C)C[C@H]1C(=O)N[C@H](C(=O)NCC(=O)N2CCC(O)CC2)CCCCN(C)C(=O)OCCC[C@@H]1C(=O)NO |
| 2700 | CNC(=O)[C@@H]1CCCCNCCC[C@H](C(=O)NO)[C@@H](CC(C)C)C(=O)N1 |

| SMILES | IC50 [nM] |
| --- | --- |
| CC(C)C[C@H]1C(=O)N[C@H](C(=O)NCCC(=O)N2CCOCC2)CCCCNC(=O)OCCC[C@@H]1C(=O)NO | 170 |
| COC(=O)c1csc(NC(=O)[C@@H]2CCCCNC(=O)OCCC[C@H](C(=O)NO)[C@@H](CC(C)C)C(=O)N2)n1 | 83 |
| CC(C)C[C@H]1C(=O)N[C@H](C(=O)NCC(=O)N2CCCCC2)Cc2ccc(cc2)OCCC[C@@H]1C(=O)NO | 140 |
| CC(C)C[C@H]1C(=O)N[C@H](C(=O)NCC(=O)Nc2ccccc2)Cc2ccc(cc2)OCCC[C@@H]1C(=O)NO | 200 |
| CC(C)C[C@H]1C(=O)N[C@H](C(=O)NC[C@H]2CCCO2)CCCCNC(=O)OCCC[C@@H]1C(=O)NO | 980 |
| CC(C)C[C@H]1C(=O)N[C@H](C(=O)Nc2cccnc2)CCCCN(C)C(=O)OCCC[C@@H]1C(=O)NO | 500 |
| CC(C)C[C@H]1C(=O)N[C@H](C(=O)NCCc2ccccn2)CCCCNC(=O)OCCC[C@@H]1C(=O)NO | 390 |
| CC(C)C[C@H]1C(=O)N[C@H](C(=O)NCC(=O)N2CCC(C(=O)O)CC2)CCCCNC(=O)OCCC[C@@H]1C(=O)NO | 220 |
| CC(C)C[C@H]1C(=O)N[C@H](C(=O)NC[C@@H]2CCCO2)CCCCNC(=O)OCCC[C@@H]1C(=O)NO | 260 |
| CNC(=O)[C@@H](CC(C)C)NC(=O)[C@@H]1CCCCNC(=O)OCCC[C@H](C(=O)NO)[C@@H](CC(C)C)C(=O)N1 | 100 |
| CC(C)C[C@H]1C(=O)N[C@H](C(=O)NCc2ccncc2)CCCCNC(=O)OCCC[C@@H]1C(=O)NO | 490 |
| CC(C)C[C@H]1C(=O)N[C@H](C(=O)Nc2ccncc2)CCCCN(C)C(=O)OCCC[C@@H]1C(=O)NO | 500 |
| CC(C)C[C@H]1C(=O)N[C@H](C(=O)N[C@H]2c3ccccc3C[C@H]2O)CCCCNC(=O)OCCC[C@@H]1C(=O)NO | 400 |
| CC(C)C[C@H]1C(=O)N[C@H](C(=O)N[C@@H]2c3ccccc3C[C@@H]2O)CCCCNC(=O)OCCC[C@@H]1C(=O)NO | 110 |
